Tested on: HIV-IIIb
Experiment: Test A: Antiviral assay in MT4 cells
Assay type: cell-based, HIV-1
Details: MT-4 cells infected with HIV-IIIb, 5 days, CellTiter-Glo; for % inhibition at 2 μM: percent inhibition of virus-induced cell killing, from dose response curve at 2 uM drug; for inhibition at 2 µM: Human immunodeficiency virus 1, IIIB, MT4, 120 h, read-out: % inhibition at 2 μM, percent inhibition of virus-induced cell killing, from dose response curve at 2 uM drug

| Compound | % inhibition at 2 μM [%] | inhibition at 2 µM [%] |
| --- | --- | --- |
| NC(=O)c1cc(-c2cccnc2[C@H](Cc2cc(F)cc(F)c2)NC(=O)Cn2nc(C(F)(F)F)c3c2C(F)(F)C2CC32)ccc1F (single isomer, unassigned) [Example 449] | 94 |  |
| O=C(Cc1c[nH]c2ccc(O)cc12)N[C@@H](Cc1cc(F)cc(F)c1)c1ncncc1-c1ccc(Cl)cc1 [Example 316, (S)—N-(1-(5-(4-chlorophenyl)pyrimidin-4-yl)-2-(3,5-difluorophenyl)ethyl)-2-(5-hydroxy-1H-indol-3-yl)acetamide] |  | 100 |
| NC(=O)c1cc(-c2cccnc2[C@H](Cc2cc(F)cc(F)c2)NC(=O)Cn2nc(C(F)F)c3c2C2CCC3C2)ccc1F (stereo partly drawn) [Example 83, (S)-5-(2-(2-(3,5-difluorophenyl)-1-(2-(4,5,6,7-tetrahydro-3-difluoromethyl-4,7-(methano)indazol-1-yl)acetamido)ethyl)pyridin-3-yl)-2-fluorobenzamide] |  | 92 |
| NC(=O)c1cc(-c2cccnc2[C@H](Cc2cc(F)cc(F)c2)NC(=O)Cn2nc(C(F)(F)F)c3c2CNCC3)ccc1F [Example 352, (S)-5-(2-(2-(3,5-difluorophenyl)-1-(2-(3-(trifluoromethyl)-4,5,6,7-tetrahydro-1H-pyrazolo[3,4-c]pyridin-1-yl)acetamido)ethyl)pyridin-3-yl)-2-fluorobenzamide] |  | 16 |
| NC(=O)c1cc(-c2cccnc2[C@H](Cc2cc(F)cc(F)c2)NC(=O)Cn2nc(C(F)F)c3c2C(F)(F)C2CC32)ccc1F (stereo partly drawn) [Example 60H, 5-(2-((1S)-1-(2-(3-(difluoromethyl)-5,5-difluoro-3b,4,4a,5-tetrahydro-1H-cyclopropa[3,4]cyclopenta[1,2-c]pyrazol-1-yl)acetamido)-2-(3,5-difluorophenyl)ethyl)pyridin-3-yl)-2-fluorobenzamide] |  | 97 |
| NC(=O)c1cc(-c2cccnc2[C@H](Cc2cc(F)cc(F)c2)NC(=O)Cn2nc(C(F)(F)F)c3c2C(F)(F)CCC3)ccc1F [Example 311B, (S)-5-(2-(1-(2-(7,7-difluoro-3-(trifluoromethyl)-4,5,6,7-tetrahydro-1H-indazol-1-yl)acetamido)-2-(3,5-difluorophenyl)ethyl)pyridin-3-yl)-2-fluorobenzamide] |  | 97 |
| NC(=O)c1cc(-c2cccnc2[C@H](Cc2cc(F)cc(F)c2)NC(=O)Cn2nc(C(F)F)c3c2C(F)(F)C2CC32)ccc1F (single isomer, unassigned) [Example 216] | 86 |  |
| O=C(Cc1c[nH]c2ccc(O)cc12)NC(Cc1cc(F)cc(F)c1)c1nccnc1-c1ccc(Cl)cc1 (stereo not shown) [Example 443I, N-(1-(3-(4-chlorophenyl)pyrazin-2-yl)-2-(3,5-difluorophenyl)ethyl)-2-(5-hydroxy-1H-indol-3-yl)acetamide] |  | 82 |
| NC(=O)c1cc(-c2cccnc2[C@H](Cc2cc(F)cc(F)c2)NC(=O)Cn2nc(C(F)(F)F)c3ccccc32)ccc1F [Example 250, (S)-5-(2-(2-(3,5-difluorophenyl)-1-(2-(3-(trifluoromethyl)-1H-indazol-1-yl)acetamido)ethyl)pyridin-3-yl)-2-fluorobenzamide] |  | 19 |
| NC(=O)c1cc(-c2cccnc2[C@H](Cc2cc(F)cc(F)c2)NC(=O)Cn2nc(C(F)(F)F)c3c2C2CC2C3(F)F)ccc1F (stereo partly drawn) [Example 462J, 5-(2-((1S)-1-(2-(4,4-difluoro-3-(trifluoromethyl)-4,4-a,5,5a-tetrahydro-1H-cyclopropa[4,5]cyclopenta[1,2-c]pyrazol-1-yl)acetamido)-2-(3,5-difluorophenyl)ethyl)pyridin-3-yl)-2-fluorobenzamide] |  | 2 |
| NC(=O)c1cc(-c2cccnc2[C@H](Cc2cc(F)cc(F)c2)NC(=O)Cn2nc(C(F)(F)F)c3c2C[C@H]2C[C@@H]32)ccc1F (single isomer, unassigned) [Example 173] |  | 94 |
| NC(=O)c1cc(-c2cccnc2[C@H](Cc2cc(F)cc(F)c2)NC(=O)Cn2nc(C(F)F)c3c2C(F)(F)CCC3(F)F)ccc1F [Example 344, (S)-5-(2-(1-(2-(3-(difluoromethyl)-4,4,7,7-tetrafluoro-4,5,6,7-tetrahydro-1H-indazol-1-yl)acetamido)-2-(3,5-difluorophenyl)ethyl)pyridin-3-yl)-2-fluorobenzamide] |  | 93 |
| NC(=O)c1cccc(-c2cccnc2[C@H](Cc2cc(F)cc(F)c2)NC(=O)Cn2ccc3ccccc32)c1 [Example 426, (S)-3-(2-(1-(2-(1H-indol-1-yl)acetamido)-2-(3,5-difluorophenyl)ethyl)pyridin-3-yl)benzamide] |  | 19 |
| NC(=O)c1cc(-c2cccnc2[C@H](Cc2cc(F)cc(F)c2)NC(=O)Cn2nc(C(F)(F)F)c3c2C(F)(F)C2CC32)ccc1F (single isomer, unassigned) [Example 450] | 33 |  |
| NC(=O)c1cccc(-c2cccnc2[C@H](Cc2cc(F)cc(F)c2)NC(=O)Cc2c[nH]c3ccc(O)cc23)c1 [Example 39, (S)-3-(2-(2-(3,5-difluorophenyl)-1-(2-(5-hydroxy-1H-indol-3-yl)acetamido)ethyl)pyridin-3-yl)benzamide] |  | 99 |
| NC(=O)c1cccc(-c2cccnc2[C@H](Cc2cc(F)cc(F)c2)NC(=O)Cc2c[nH]c3ccc(F)cc23)c1 [Example 50D, (S)-3-(2-(2-(3,5-difluorophenyl)-1-(2-(5-fluoro-1H-indol-3-yl)acetamido)ethyl)pyridin-3-yl)benzamide] |  | 106 |
| NC(=O)c1cc(-c2cccnc2[C@H](Cc2cc(F)cc(F)c2)NC(=O)Cn2nc(C(F)(F)F)c3c2[C@@H]2C[C@@H]2C3)ccc1F [Example 187, 5-(2-((S)-2-(3,5-difluorophenyl)-1-(2-((4aR,5aR)-3-(trifluoromethyl)-4,4-a,5,5a-tetrahydro-1H-cyclopropa[4,5]cyclopenta[1,2-c]pyrazol-1-yl)acetamido)ethyl)pyridin-3-yl)-2-fluorobenzamide] | 31 |  |
| NC(=O)c1cc(-c2cccnc2[C@H](Cc2cc(F)cc(F)c2)NC(=O)Cn2ccc(C(F)(F)F)n2)ccc1F [Example 455, (S)-5-(2-(2-(3,5-difluorophenyl)-1-(2-(3-(trifluoromethyl)-1H-pyrazol-1-yl)acetamido)ethyl)pyridin-3-yl)-2-fluorobenzamide] |  | 4 |
| NC(=O)c1cc(-c2cccnc2[C@H](Cc2cc(F)cc(F)c2)NC(=O)Cn2nc(C(F)(F)F)c3c2CCOC3)ccc1F [Example 112B, (S)-5-(2-(2-(3,5-difluorophenyl)-1-(2-(3-(trifluoromethyl)-6,7-dihydropyrano[4,3-c]pyrazol-1(4H)-yl)acetamido)ethyl)pyridin-3-yl)-2-fluorobenzamide] |  | 28 |
| NC(=O)c1cc(-c2cccnc2[C@H](Cc2cc(F)cc(F)c2)NC(=O)Cn2nc(C(F)(F)F)c3c2C(F)(F)C2CC32)ccc1F (stereo partly drawn) [Example 181E, 5-(2-((1S)-1-(2-(5,5-difluoro-3-(trifluoromethyl)-3b,4,4a,5-tetrahydro-1H-cyclopropa[3,4]cyclopenta[1,2-c]pyrazol-1-yl)acetamido)-2-(3,5-difluorophenyl)ethyl)pyridin-3-yl)-2-fluorobenzamide] |  | 99 |
| O=C(Cc1c[nH]c2ccc(O)cc12)N[C@H](Cc1cc(F)cc(F)c1)c1ncncc1-c1ccc(Cl)cc1 [Example 284, (R)—N-(1-(5-(4-chlorophenyl)pyrimidin-4-yl)-2-(3,5-difluorophenyl)ethyl)-2-(5-hydroxy-1H-indol-3-yl)acetamide] |  | 50 |
| NC(=O)c1cc(-c2cccnc2[C@H](Cc2cc(F)cc(F)c2)NC(=O)Cn2nc(C(F)(F)F)c3c2CCCC3)ccc1F [Example 589, (S)-5-(2-(2-(3,5-difluorophenyl)-1-(2-(3-(trifluoromethyl)-4,5,6,7-tetrahydro-1H-indazol-1-yl)acetamido)ethyl)pyridin-3-yl)-2-fluorobenzamide] |  | 106 |
| NC(=O)c1cc(-c2cccnc2[C@H](Cc2cc(F)cc(F)c2)NC(=O)Cn2nc(C(F)(F)F)c3c2C2CC2C3)ccc1F (stereo partly drawn) [Example 169E, 5-(2-((1S)-2-(3,5-difluorophenyl)-1-(2-(3-(trifluoromethyl)-4,4-a,5,5a-tetrahydro-1H-cyclopropa[4,5]cyclopenta[1,2-c]pyrazol-1-yl)acetamido)ethyl)pyridin-3-yl)-2-fluorobenzamide] |  | 94 |
| NC(=O)c1cc(-c2cccnc2[C@H](Cc2cc(F)cc(F)c2)NC(=O)Cn2nc(C(F)(F)F)c3c2CC2CC32)ccc1F (stereo partly drawn) [Example 122G, 5-(2-((1S)-2-(3,5-difluorophenyl)-1-(2-(3-(trifluoromethyl)-3b,4,4a,5-tetrahydro-1H-cyclopropa[3,4]cyclopenta[1,2-c]pyrazol-1-yl)acetamido)ethyl)pyridin-3-yl)-2-fluorobenzamide] |  | 101 |
| NC(=O)c1cc(-c2cccnc2[C@H](Cc2cc(F)cc(F)c2)NC(=O)Cn2nc(C(F)(F)F)c3c2CCCC3(F)F)ccc1F [Example 102D, (S)-5-(2-(1-(2-(4,4-difluoro-3-(trifluoromethyl)-4,5,6,7-tetrahydro-1H-indazol-1-yl)acetamido)-2-(3,5-difluorophenyl)ethyl)pyridin-3-yl)-2-fluorobenzamide] |  | 50 |
| NC(=O)c1cc(-c2cccnc2[C@H](Cc2cc(F)cc(F)c2)NC(=O)Cn2nc(C(F)F)c(C3CC3)c2C(F)F)ccc1F [Example 562, (S)-5-(2-(1-(2-(4-cyclopropyl-3,5-bis(difluoromethyl)-1H-pyrazol-1-yl)acetamido)-2-(3,5-difluorophenyl)ethyl)pyridin-3-yl)-2-fluorobenzamide] |  | 42 |
| NC(=O)c1cc(-c2cccnc2[C@H](Cc2cc(F)cc(F)c2)NC(=O)Cn2nc(C(F)F)c3c2C(F)(F)C2CC32)ccc1F (single isomer, unassigned) [Example 215] |  | 80 |
| NC(=O)c1cc(-c2cccnc2[C@H](Cc2cc(F)cc(F)c2)NC(=O)Cn2nc(C(F)(F)F)c3c2C[C@@H]2C[C@H]32)ccc1F (single isomer, unassigned) [Example 174] |  | 71 |

From patent publication US9540343B2 (Gilead Sciences, Inc., priority 2011, dated 2017)
